Reference: US20120053115A1, “Lantibiotic Carboxyamide Derivatives With Enhanced Antibacterial Activity” (Sentinella Pharmaceuticals, Inc., priority 2008, published 2012)

How the values were obtained:
[1] = test system: Staphylococcus aureus VISA Met-R (code 3797); conditions: S. aureus VISA Met-R code 3797; 0.02% albumine bovine serum; read after 24 h
Protocol: (§1) MICs were performed using the broth microdilution methodology following the NCCLS procedure (NCCLS Document M7-A4 Vol. 17 No. 2 January 1997) in presence of 0.02% albumine bovine serum with inocula of approximately 5×10^5 cfu/mL. The media employed included cation-adjusted Mueller-Hinton (MH) broth (Difco Laboratories, Detroit, Mich., USA) supplemented or not with 30% (v/v) bovine serum. Tests were read after 24 h incubation at 25-37° C.

[2] = test system: Staphylococcus aureus VISA (code 3798); conditions: S. aureus VISA code 3798; 0.02% albumine bovine serum; read after 24 h
Protocol: as §1

[3] = test system: S. epidermidis ATCC12228 (code 147); conditions: 0.02% albumine bovine serum, read after 24 h
Protocol: as §1

[4] = test system: E. faecalisVanA (code 560); conditions: E. faecalis VanA code 560; 0.02% albumine bovine serum; read after 24 h
Protocol: as §1

[5] = test system: E. faecalisVanS (code 559); conditions: E. faecalis VanS code 559; 0.02% albumine bovine serum; read after 24 h
Protocol: as §1

[6] = test system: E. faecium VanA (code 569); conditions: 0.02% albumine bovine serum, read after 24 h
Protocol: as §1

[7] = test system: Enterococcus faecium VanS (code 568); conditions: E. faecium VanS code 568; 0.02% albumine bovine serum; read after 24 h
Protocol: as §1

[8] = test system: S. haemolyticus Met-R (code 1729); conditions: 0.02% albumine bovine serum, read after 24 h
Protocol: as §1

[9] = test system: Escherichia coli (code 47); conditions: 0.02% albumine bovine serum, read after 24 h
Protocol: as §1

[10] = test system: C. albicans ATCC 90028 (code 145); conditions: 0.02% albumine bovine serum, read after 24 h
Protocol: as §1

[11] = test system: S. haemolyticus Met-S (code 1730); conditions: 0.02% albumine bovine serum, read after 24 h
Protocol: as §1

Structure (SMILES)	Minimal Inhibitory Concentrations [1]	Minimal Inhibitory Concentrations [2]	Minimal Inhibitory Concentrations [3]	Minimal Inhibitory Concentrations [4]	Minimal Inhibitory Concentrations [5]	Minimal Inhibitory Concentrations [6]	Minimal Inhibitory Concentrations [7]	Minimal Inhibitory Concentrations [8]	Minimal Inhibitory Concentrations [9]	Minimal Inhibitory Concentrations [10]	Minimal Inhibitory Concentrations [11]
C=C1NC(=O)[C@H](C(C)C)NC(=O)[C@H](NC(=O)/C(=C/C)NC(=O)[C@@H](N)[C@@H](C)CC)CSC[C@@H](C(=O)N[C@H]2C(=O)N3CCC[C@H]3C(=O)NCC(=O)N[C@H](C(=O)N[C@H](C(=O)N[C@@H]3CSC[C@@H]4NC(=O)CNC(=O)[C@@H](CSC[C@@H]5NC(=O)[C@H](Cc6c[nH]cn6)NC(=O)[C@@H](CSC[C@@H](C(=O)NC6CCCCC6)NC5=O)NC4=O)NC(=O)CNC(=O)CNC(=O)CNC(=O)[C@H](CCC(=O)NC4CCCCC4)NC3=O)[C@@H](C)O)CS[C@H]2C)NC(=O)[C@H](Cc2c[nH]c3ccccc23)NC1=O [Compound 1]	4 µg/mL	2 µg/mL	2 µg/mL	1 µg/mL	1 µg/mL	2 µg/mL	2 µg/mL	32 µg/mL	>128 µg/mL	64 µg/mL	4 µg/mL
C=C1NC(=O)[C@H](C(C)C)NC(=O)[C@H](NC(=O)/C(=C/C)NC(=O)[C@@H](N)[C@@H](C)CC)CSC[C@@H](C(=O)N[C@H]2C(=O)N3CCC[C@H]3C(=O)NCC(=O)N[C@H](C(=O)N[C@H](C(=O)N[C@@H]3CSC[C@@H]4NC(=O)CNC(=O)[C@@H](CSC[C@@H]5NC(=O)[C@H](Cc6c[nH]cn6)NC(=O)[C@@H](CSC[C@@H](C(=O)N(C)C)NC5=O)NC4=O)NC(=O)CNC(=O)CNC(=O)CNC(=O)[C@H](CCC(=O)N(C)C)NC3=O)[C@@H](C)O)CS[C@H]2C)NC(=O)[C@H](Cc2c[nH]c3ccccc23)NC1=O [Compound 2]	16 µg/mL	4 µg/mL	8 µg/mL	16 µg/mL	16 µg/mL	16 µg/mL	16 µg/mL	32 µg/mL	>128 µg/mL	64 µg/mL	8 µg/mL
C=CCNC(=O)CC[C@@H]1NC(=O)[C@H](NC(=O)[C@@H](NC(=O)[C@@H]2CS[C@@H](C)[C@@H](NC(=O)[C@@H]3CSC[C@@H](NC(=O)/C(=C/C)NC(=O)[C@@H](N)[C@@H](C)CC)C(=O)N[C@@H](C(C)C)C(=O)NC(=C)C(=O)N[C@@H](Cc4c[nH]c5ccccc45)C(=O)N3)C(=O)N3CCC[C@H]3C(=O)NCC(=O)N2)[C@@H](C)O)CSC[C@@H]2NC(=O)CNC(=O)[C@@H](CSC[C@@H]3NC(=O)[C@H](Cc4c[nH]cn4)NC(=O)[C@@H](CSC[C@@H](C(=O)NCC=C)NC3=O)NC2=O)NC(=O)CNC(=O)CNC(=O)CNC1=O [Compound 5]	8 µg/mL	2 µg/mL	4 µg/mL	8 µg/mL	8 µg/mL	8 µg/mL	8 µg/mL	32 µg/mL	>128 µg/mL	32 µg/mL	4 µg/mL
C=C1NC(=O)[C@H](C(C)C)NC(=O)[C@H](NC(=O)/C(=C/C)NC(=O)[C@@H](N)[C@@H](C)CC)CSC[C@@H](C(=O)N[C@H]2C(=O)N3CCC[C@H]3C(=O)NCC(=O)N[C@H](C(=O)N[C@H](C(=O)N[C@@H]3CSC[C@@H]4NC(=O)CNC(=O)[C@@H](CSC[C@@H]5NC(=O)[C@H](Cc6c[nH]cn6)NC(=O)[C@@H](CSC[C@@H](C(=O)NCc6cccc(OC)c6)NC5=O)NC4=O)NC(=O)CNC(=O)CNC(=O)CNC(=O)[C@H](CCC(=O)NCc4cccc(OC)c4)NC3=O)[C@@H](C)O)CS[C@H]2C)NC(=O)[C@H](Cc2c[nH]c3ccccc23)NC1=O [Compound 6]	2 µg/mL	1 µg/mL	2 µg/mL	2 µg/mL	2 µg/mL	1 µg/mL	2 µg/mL	>128 µg/mL	>128 µg/mL	32 µg/mL	2 µg/mL
C=C1NC(=O)[C@H](C(C)C)NC(=O)[C@H](NC(=O)/C(=C/C)NC(=O)[C@@H](N)[C@@H](C)CC)CSC[C@@H](C(=O)N[C@H]2C(=O)N3CCC[C@H]3C(=O)NCC(=O)N[C@H](C(=O)N[C@H](C(=O)N[C@@H]3CSC[C@@H]4NC(=O)CNC(=O)[C@@H](CSC[C@@H]5NC(=O)[C@H](Cc6c[nH]cn6)NC(=O)[C@@H](CSC[C@@H](C(=O)NCCN)NC5=O)NC4=O)NC(=O)CNC(=O)CNC(=O)CNC(=O)[C@H](CCC(=O)NCCN)NC3=O)[C@@H](C)O)CS[C@H]2C)NC(=O)[C@H](Cc2c[nH]c3ccccc23)NC1=O [Compound 7]	1 µg/mL	0.50 µg/mL	1 µg/mL	2 µg/mL	4 µg/mL	1 µg/mL	1 µg/mL	0.25 µg/mL	>128 µg/mL	64 µg/mL	<0.125 µg/mL
C=C1NC(=O)[C@H](C(C)C)NC(=O)[C@H](NC(=O)/C(=C/C)NC(=O)[C@@H](N)[C@@H](C)CC)CSC[C@@H](C(=O)N[C@H]2C(=O)N3CCC[C@H]3C(=O)NCC(=O)N[C@H](C(=O)N[C@H](C(=O)N[C@@H]3CSC[C@@H]4NC(=O)CNC(=O)[C@@H](CSC[C@@H]5NC(=O)[C@H](Cc6c[nH]cn6)NC(=O)[C@@H](CSC[C@@H](C(=O)NCCCCCCCCCCCC)NC5=O)NC4=O)NC(=O)CNC(=O)CNC(=O)CNC(=O)[C@H](CCC(=O)NCCCCCCCCCCCC)NC3=O)[C@@H](C)O)CS[C@H]2C)NC(=O)[C@H](Cc2c[nH]c3ccccc23)NC1=O [Compound 8]	2 µg/mL	1 µg/mL	1 µg/mL	1 µg/mL	1 µg/mL	2 µg/mL	2 µg/mL	1 µg/mL	2 µg/mL	0.25 µg/mL	1 µg/mL
C=C1NC(=O)[C@H](C(C)C)NC(=O)[C@H](NC(=O)/C(=C/C)NC(=O)[C@@H](N)[C@@H](C)CC)CSC[C@@H](C(=O)N[C@H]2C(=O)N3CCC[C@H]3C(=O)NCC(=O)N[C@H](C(=O)N[C@H](C(=O)N[C@@H]3CSC[C@@H]4NC(=O)CNC(=O)[C@@H](CSC[C@@H]5NC(=O)[C@H](Cc6c[nH]cn6)NC(=O)[C@@H](CSC[C@@H](C(=O)Nc6cccc7ccccc67)NC5=O)NC4=O)NC(=O)CNC(=O)CNC(=O)CNC(=O)[C@H](CCC(=O)Nc4cccc5ccccc45)NC3=O)[C@@H](C)O)CS[C@H]2C)NC(=O)[C@H](Cc2c[nH]c3ccccc23)NC1=O [Compound 9]	32 µg/mL	32 µg/mL	16 µg/mL	16 µg/mL	16 µg/mL	16 µg/mL	8 µg/mL	16 µg/mL	>128 µg/mL	32 µg/mL	16 µg/mL
C=C1NC(=O)[C@H](C(C)C)NC(=O)[C@H](NC(=O)/C(=C/C)NC(=O)[C@@H](N)[C@@H](C)CC)CSC[C@@H](C(=O)N[C@H]2C(=O)N3CCC[C@H]3C(=O)NCC(=O)N[C@H](C(=O)N[C@H](C(=O)N[C@@H]3CSC[C@@H]4NC(=O)CNC(=O)[C@@H](CSC[C@@H]5NC(=O)[C@H](Cc6c[nH]cn6)NC(=O)[C@@H](CSC[C@@H](C(=O)NCCOC)NC5=O)NC4=O)NC(=O)CNC(=O)CNC(=O)CNC(=O)[C@H](CCC(=O)NCCOC)NC3=O)[C@@H](C)O)CS[C@H]2C)NC(=O)[C@H](Cc2c[nH]c3ccccc23)NC1=O [Compound 11]	8 µg/mL	4 µg/mL	8 µg/mL	16 µg/mL	16 µg/mL	8 µg/mL	16 µg/mL	32 µg/mL	>128 µg/mL	64 µg/mL	4 µg/mL
